One assay has as its target CDK2/E (Homo sapiens, UniProt P24864). Nature of the assay: In vitro kinase assay.
The next assay concerns the target CDK2/Cyclin A2 (Homo sapiens, UniProt P20248). Nature of the assay: In vitro kinase assay, 32P filter capture with GST-Rb substrate. The assay is classed as biochemical.

The structures appear in SMILES notation.

For the molecule `CC[C@H](C)[C@H](NC(=O)[C@H](CC(C)C)NC(=O)[C@H](CCCNC(=N)N)NC(=O)[C@H](CCCNC(=N)N)NC(=O)[C@H](CCCCN)NC(=O)[C@H](C)NC(=O)[C@@H](N)Cc1c[nH]cn1)C(=O)N[C@@H](Cc1ccco1)C(N)=O` [HAKRRLIX1], the IC50 – broadly, the concentration needed to halve the response being measured – turned out to be 1.3 µM on CDK2/E and 6.1 µM at CDK2/Cyclin A2.

The values are drawn from patent publication US20140296484A1, “Cyclin Based Inhibitors of CDK2 and CDK4” (University of South Carolina, priority 2013, published 2014).
